We go through 36 molecules from ChEMBL document CHEMBL5634104, “Identification of 1,3,4-oxadiazolyl-containing β-carboline derivatives as novel α-glucosidase inhibitors with antidiabetic activity” (Eur J Med Chem, 2023).

The target of data set [1] is T1, Alpha-glucosidase (Saccharomyces cerevisiae S288c, UniProt P53341+P38158+P07265). Description: Inhibition of Saccharomyces cerevisiae Alpha-glucosidase using p-NPG as substrate and measured after 10 mins. Format: protein assay.
For data set [2], the system named is Mus musculus. The data set can be described thus: Anti-diabetic activity against streptozocin-induced C57/6J mouse diabetes model assessed as decrease in blood glucose level at 100 mg/kg/day, po administered for 25 days in presence of sucrose by OGTT assay. Format: functional, organism-based. Particulars: time 25.0 day.
The test system of data set [3] is Mus musculus. Description: Anti-diabetic activity against streptozocin-induced C57/6J mouse diabetes model assessed as decrease in fasting blood glucose at 100 mg/kg/day, po and measured from 2 to 4 weeks. The class given is functional, organism-based. Particulars: time 2-4 weeks.
In data set [4] the test system is Mus musculus. The data set can be described thus: Antihyperlipidemic activity against streptozocin-induced C57/6J mouse assessed as decrease in total cholesterol level at 100 mg/kg/day, po administered for 4 weeks by automatic biochemical analyzer. The class given is functional, organism-based.
Data set [5] deals with Mus musculus. The data set can be described thus: Antihyperlipidemic activity against streptozocin-induced C57/6J mouse assessed as decrease in triglyceride level at 100 mg/kg/day, po administered for 4 weeks by automatic biochemical analyzer. The class given is functional, organism-based.
For data set [6], the system named is Mus musculus. The data set can be described thus: Anti-diabetic activity against streptozocin-induced C57/6J mouse diabetes model assessed as change in fasting blood glucose at 100 mg/kg/day, po and measured after 1 week. Format: functional, organism-based. The note with it: time 1.0 weeks.
The test system of data set [7] is Mus musculus. Description: Anti-diabetic activity against streptozocin-induced C57/6J mouse diabetes model assessed as decrease in blood glucose level at 50 mg/kg/day, po administered for 25 days in presence of sucrose by OGTT assay. Format: functional, organism-based. The note with it: time 25.0 day.
The target in data set [8] is T1, Alpha-glucosidase. The data set can be described thus: Noncompetitive inhibition of Saccharomyces cerevisiae Alpha-glucosidase assessed as decrease in Vmax with constant Km using p-NPG as substrate by Lineweaver-Burk plot analysis. Format: protein assay.
Data set [9] has as its system Mus musculus. Description: Antihyperlipidemic activity against streptozocin-induced C57/6J mouse assessed as decrease in triglyceride level at 50 mg/kg/day, po administered for 4 weeks by automatic biochemical analyzer. Format: functional, organism-based.
The test system of data set [10] is Mus musculus. The data set can be described thus: Anti-diabetic activity against streptozocin-induced C57/6J mouse diabetes model assessed as change in fasting blood glucose at 50 mg/kg/day, po and measured after 1 week. Format: functional, organism-based. The note with it: time 1.0 weeks.
Data set [11] relates to L02. The data set can be described thus: Cytotoxicity against human L02 cells upto 32 uM. The class given is toxicity, cell-based. Particulars: l02, 32 µM.
For data set [12], the system named is Mus musculus. The data set can be described thus: Antihyperlipidemic activity against streptozocin-induced C57/6J mouse assessed as decrease in total cholesterol level at 50 mg/kg/day, po administered for 4 weeks by automatic biochemical analyzer. The class given is functional, organism-based.
Data set [13] relates to Mus musculus. Description: Anti-diabetic activity against streptozocin-induced C57/6J mouse diabetes model assessed as decrease in fasting blood glucose at 50 mg/kg/day, po and measured from 2 to 4 weeks. The class given is functional, organism-based. Particulars: time 2-4 weeks.

By IC50 is commonly meant the concentration at which inhibition is half-maximal. Broadly, the Ki is a dissociation constant, usually derived from enzyme kinetics or from competition with a known ligand.

Active and inactive are the calls of the source. The calls are words filed in the database; no cut-off is given here.

The molecule `COC(=O)c1ccccc1CSc1nnc(-c2cc3c([nH]c4ccccc43)c(-c3ccccc3)n2)o1` yielded an IC50 in data set [1] of 5.58 µM. Same read-out and setting: with `Brc1ccccc1CSc1nnc(-c2cc3c([nH]c4ccccc43)c(-c3ccccc3)n2)o1` the figure was 6.97 µM; with `c1ccc(-c2ccc(CSc3nnc(-c4cc5c([nH]c6ccccc65)c(-c5ccccc5)n4)o3)cc2)cc1`, 4.32 µM; with `Brc1cccc(CSc2nnc(-c3cc4c([nH]c5ccccc54)c(-c4ccccc4)n3)o2)c1`, 8.47 µM. Same read-out and setting: with `FC(F)(F)c1ccc(CSc2nnc(-c3cc4c([nH]c5ccccc54)c(-c4ccccc4)n3)o2)cc1` the figure was 8.48 µM; with `Clc1cccc(CSc2nnc(-c3cc4c([nH]c5ccccc54)c(-c4ccccc4)n3)o2)c1`, 12.71 µM. In data set [1], `c1ccc(-c2cccc(CSc3nnc(-c4cc5c([nH]c6ccccc65)c(-c5ccccc5)n4)o3)c2)cc1` showed an IC50 of 3.39 µM. On the same count and under the same terms, in the case of `Cc1cccc(CSc2nnc(-c3cc4c([nH]c5ccccc54)c(-c4ccccc4)n3)o2)c1` it was 10.4 µM. Turning to `C[C@H]1O[C@H](O[C@H]2[C@H](O)[C@@H](O)[C@@H](O[C@H]3[C@H](O)[C@@H](O)C(O)O[C@@H]3CO)O[C@@H]2CO)[C@H](O)[C@@H](O)[C@@H]1N[C@H]1C=C(CO)[C@@H](O)[C@H](O)[C@H]1O` (some centres undefined), the outcome in [2], in data set [3], in data set [4] and in [5] was Active. Also, the outcome in [6] was inactive. Consider `Fc1ccccc1CSc1nnc(-c2cc3c([nH]c4ccccc43)c(-c3ccccc3)n2)o1`, for which the IC50 in data set [1] was determined as 14.75 µM.

`Cc1ccccc1CSc1nnc(-c2cc3c([nH]c4ccccc43)c(-c3ccccc3)n2)o1`: in [1], the IC50 is 3.33 µM. On the same count and under the same terms, in the case of `Clc1ccc(CSc2nnc(-c3cc4c([nH]c5ccccc54)c(-c4ccccc4)n3)o2)cc1` it was 5.31 µM; in that of `FC(F)(F)c1cccc(CSc2nnc(-c3cc4c([nH]c5ccccc54)c(-c4ccccc4)n3)o2)c1`, 12.25 µM. In [1], `Clc1ccc(CSc2nnc(-c3cc4c([nH]c5ccccc54)c(-c4ccccc4)n3)o2)cc1Cl` displayed an IC50 of 9.66 µM. The same measure, in the same setting: in the case of `Cc1ccc(CSc2nnc(-c3cc4c([nH]c5ccccc54)c(-c4ccccc4)n3)o2)cc1` it was 11.86 µM; in that of `Fc1cccc(CSc2nnc(-c3cc4c([nH]c5ccccc54)c(-c4ccccc4)n3)o2)c1`, 15.41 µM; in that of `O=[N+]([O-])c1ccccc1CSc1nnc(-c2cc3c([nH]c4ccccc43)c(-c3ccccc3)n2)o1`, 9.57 µM. The same measure, in the same setting: with `CS(=O)(=O)c1ccc(CSc2nnc(-c3cc4c([nH]c5ccccc54)c(-c4ccccc4)n3)o2)cc1` the figure was 6.15 µM.

As for `Clc1ccccc1CSc1nnc(-c2cc3c([nH]c4ccccc43)c(-c3ccccc3)n2)o1`, in [1], the half-maximal inhibitory concentration (IC50) is 5.46 µM. On the same count and under the same terms, in the case of `FC(F)(F)c1ccccc1CSc1nnc(-c2cc3c([nH]c4ccccc43)c(-c3ccccc3)n2)o1` it was 10.59 µM. For the molecule `COC(=O)c1cccc(CSc2nnc(-c3cc4c([nH]c5ccccc54)c(-c4ccccc4)n3)o2)c1`, the IC50 in data set [1] amounted to 4.93 µM. On to `c1ccc(-c2ccccc2CSc2nnc(-c3cc4c([nH]c5ccccc54)c(-c4ccccc4)n3)o2)cc1`, for which the outcome in data set [7], in data set [9], in data set [12] and in data set [13] was Active. This molecule also showed an IC50 in [1] of 3.07 µM. Also, the inhibitory constant (Ki) in data set [8] worked out at 1.22 µM. The outcome in [10] was inactive. For the same molecule, the Activity entry in [11] was “Non-Toxic”. In data set [1], `COC(=O)c1ccc(CSc2nnc(-c3cc4c([nH]c5ccccc54)c(-c4ccccc4)n3)o2)cc1` yielded an IC50 of 4.6 µM. On the same count and under the same terms, with `Brc1ccc(CSc2nnc(-c3cc4c([nH]c5ccccc54)c(-c4ccccc4)n3)o2)cc1` the figure was 5.42 µM; with `N#Cc1cccc(CSc2nnc(-c3cc4c([nH]c5ccccc54)c(-c4ccccc4)n3)o2)c1`, 10.42 µM.

In data set [1], `FC(F)(F)Oc1ccc(CSc2nnc(-c3cc4c([nH]c5ccccc54)c(-c4ccccc4)n3)o2)cc1` displayed an IC50 of 6.44 µM.

Regarding `Fc1ccc(CSc2nnc(-c3cc4c([nH]c5ccccc54)c(-c4ccccc4)n3)o2)cc1`, in [1], the IC50 turned out to be 14.73 µM. Still for that read-out and setting: with `FC(F)(F)Oc1cccc(CSc2nnc(-c3cc4c([nH]c5ccccc54)c(-c4ccccc4)n3)o2)c1` the figure was 10.93 µM.

Take `CC(C)(C)c1ccc(CSc2nnc(-c3cc4c([nH]c5ccccc54)c(-c4ccccc4)n3)o2)cc1`: the IC50 in data set [1] is 4.95 µM. For the molecule `c1ccc(CSc2nnc(-c3cc4c([nH]c5ccccc54)c(-c4ccccc4)n3)o2)cc1`, the IC50 in data set [1] came out at 15.49 µM. In data set [8], the Ki was determined as 1.81 µM.

On to `FC(F)(F)Oc1ccccc1CSc1nnc(-c2cc3c([nH]c4ccccc43)c(-c3ccccc3)n2)o1`, for which the IC50 in data set [1] came out at 10.64 µM. Same read-out and setting: in the case of `N#Cc1ccc(CSc2nnc(-c3cc4c([nH]c5ccccc54)c(-c4ccccc4)n3)o2)cc1` it was 10.36 µM; in that of `O=[N+]([O-])c1cccc(CSc2nnc(-c3cc4c([nH]c5ccccc54)c(-c4ccccc4)n3)o2)c1`, 5.76 µM. On the same count and under the same terms, with `Fc1ccc(CSc2nnc(-c3cc4c([nH]c5ccccc54)c(-c4ccccc4)n3)o2)cc1F` the figure was 9.12 µM. `O=[N+]([O-])c1ccc(CSc2nnc(-c3cc4c([nH]c5ccccc54)c(-c4ccccc4)n3)o2)cc1` came in with an IC50 in data set [1] of 3.1 µM. Moreover, the inhibition constant (Ki) in data set [8] turned out to be 2.86 µM. As for `N#Cc1ccccc1CSc1nnc(-c2cc3c([nH]c4ccccc43)c(-c3ccccc3)n2)o1`, in data set [1], the IC50 is 10.57 µM.
